Data taken from the supplement of paper PMC11451515.

Test system: SEM cells
Assay: cell viability relative to DMSO control; higher = less cytotoxic
Conditions: 48 h
Procedure, shortened: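 Cells were incubated for 48 h at 37°C before CellTiter-Glo One luminescence was read. The cells were NOMO1 or SEM (500 cells/well) or P12-Ichikawa (1000 cells/well) leukemia cells, adapted for at least four passages in each medium and seeded in 1536-well plates (5 μl). Dosing used library compounds in DMSO applied by pin over 11 threefold points, 47 μM to 0.79 nM. Viability is the per-plate percentage of DMSO wells, with cell-free wells as background.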

[1] = HPLM + 10% dialyzed FBS, 0.000781 µM
[2] = HPLM + 10% dialyzed FBS, 0.00234 µM
[3] = HPLM + 10% dialyzed FBS, 0.00702 µM
[4] = HPLM + 10% dialyzed FBS, 0.0211 µM
[5] = HPLM + 10% dialyzed FBS, 0.0632 µM
[6] = HPLM + 10% dialyzed FBS, 0.19 µM
[7] = HPLM + 10% dialyzed FBS, 0.569 µM
[8] = HPLM + 10% dialyzed FBS, 1.71 µM
[9] = HPLM + 10% dialyzed FBS, 5.12 µM
[10] = HPLM + 10% dialyzed FBS, 15.4 µM
[11] = HPLM + 10% dialyzed FBS, 46.1 µM
[12] = RPMI 5 mM glucose + 10% FBS, 0.000781 µM
[13] = RPMI 5 mM glucose + 10% FBS, 0.00234 µM
[14] = RPMI 5 mM glucose + 10% FBS, 0.00702 µM
[15] = RPMI 5 mM glucose + 10% FBS, 0.0211 µM
[16] = RPMI 5 mM glucose + 10% FBS, 0.0632 µM
[17] = RPMI 5 mM glucose + 10% FBS, 0.19 µM
[18] = RPMI 5 mM glucose + 10% FBS, 0.569 µM
[19] = RPMI 5 mM glucose + 10% FBS, 1.71 µM
[20] = RPMI 5 mM glucose + 10% FBS, 5.12 µM
[21] = RPMI 5 mM glucose + 10% FBS, 15.4 µM
[22] = RPMI 5 mM glucose + 10% FBS, 46.1 µM
[23] = RPMI 5 mM glucose + 10% dialyzed FBS, 0.000781 µM
[24] = RPMI 5 mM glucose + 10% dialyzed FBS, 0.00234 µM
[25] = RPMI 5 mM glucose + 10% dialyzed FBS, 0.00702 µM
[26] = RPMI 5 mM glucose + 10% dialyzed FBS, 0.0211 µM
[27] = RPMI 5 mM glucose + 10% dialyzed FBS, 0.0632 µM
[28] = RPMI 5 mM glucose + 10% dialyzed FBS, 0.19 µM
[29] = RPMI 5 mM glucose + 10% dialyzed FBS, 0.569 µM
[30] = RPMI 5 mM glucose + 10% dialyzed FBS, 1.71 µM
[31] = RPMI 5 mM glucose + 10% dialyzed FBS, 5.12 µM
[32] = RPMI 5 mM glucose + 10% dialyzed FBS, 15.4 µM
[33] = RPMI 5 mM glucose + 10% dialyzed FBS, 46.1 µM

Row | SMILES | cell viability [1] [%] | cell viability [2] [%] | cell viability [3] [%] | cell viability [4] [%] | cell viability [5] [%] | cell viability [6] [%] | cell viability [7] [%] | cell viability [8] [%] | cell viability [9] [%] | cell viability [10] [%] | cell viability [11] [%] | cell viability [12] [%] | cell viability [13] [%] | cell viability [14] [%] | cell viability [15] [%] | cell viability [16] [%] | cell viability [17] [%] | cell viability [18] [%] | cell viability [19] [%] | cell viability [20] [%] | cell viability [21] [%] | cell viability [22] [%] | cell viability [23] [%] | cell viability [24] [%] | cell viability [25] [%] | cell viability [26] [%] | cell viability [27] [%] | cell viability [28] [%] | cell viability [29] [%] | cell viability [30] [%] | cell viability [31] [%] | cell viability [32] [%] | cell viability [33] [%]
1 | Cc1c(C(=O)NN2CCCCC2)nn(-c2ccc(Cl)cc2Cl)c1-c1ccc(Cl)cc1 | 103 | 125 | 113 | 114 | 128 | 129 | 122 | 124 | 131 | 127 | 93 | 103 | 112 | 118 | 118 | 118 | 127 | 127 | 135 | 130 | 129 | 99.5 | 107 | 120 | 137 | 116 | 128 | 149 | 139 | 144 | 119 | 133 | 104
2 | CC(C)C[C@@H](C=O)NC(=O)[C@H](CC(C)C)NC(=O)[C@H](CC(C)C)NC(=O)OCc1ccccc1 | 108 | 115 | 126 | 122 | 148 | 139 | 81.8 | 9.69 | 9.22 | 8.52 | 8.11 | 111 | 131 | 124 | 143 | 124 | 127 | 10.8 | 9.94 | 10 | 9.17 | 8.59 |  |  |  |  |  |  |  |  |  |  | 
3 | CNC1CCC(N(Cc2cccc(-c3ccncc3)c2)C(=O)c2sc3c(F)ccc(F)c3c2Cl)CC1 (stereo not drawn) | 80.2 | 102 | 106 | 117 | 103 | 101 | 102 | 113 | 93.3 | 85.3 | 53.2 | 97.5 | 101 | 120 | 105 | 109 | 95.9 | 98 | 110 | 99.9 | 92.3 | 73.3 | 93.7 | 99.3 | 113 | 107 | 104 | 74.7 | 101 | 91.9 | 90.3 | 85.9 | 69.2
4 | CN1CCCN=C1/C=C/c1cccs1.O=C(O)c1cc2ccccc2c(Cc2c(O)c(C(=O)O)cc3ccccc23)c1O | 113 | 126 | 114 | 128 | 120 | 135 | 118 | 119 | 113 | 115 | 91.9 | 113 | 118 | 128 | 119 | 105 | 128 | 129 | 105 | 105 | 92.9 | 15 |  |  |  |  |  |  |  |  |  |  | 
5 | COc1cc2c(cc1OC)CC(=O)N(CCCN(C)C[C@H]1Cc3cc(OC)c(OC)cc31)CC2.Cl | 102 | 96.8 | 116 | 115 | 112 | 125 | 114 | 111 | 112 | 114 | 105 | 99.2 | 105 | 96.3 | 114 | 113 | 107 | 107 | 95.7 | 111 | 92.9 | 93.4 | 93.6 | 112 | 108 | 117 | 104 | 88.3 | 105 | 104 | 103 | 113 | 92
6 | CNC(=O)c1ccc(N2C(=S)N(c3ccc(C#N)c(C(F)(F)F)c3)C(=O)C23CCC3)cc1F | 87.3 | 98.8 | 95.9 | 19.5 | 92.3 | 97 | 97.8 | 95.2 | 101 | 96.9 | 97.3 | 84.7 | 83.4 | 104 | 14.2 | 83 | 98.3 | 99.3 | 91.7 | 86.7 | 98.3 | 96.3 | 84.3 | 83 | 104 | 15.8 | 102 | 101 | 96.3 | 96.9 | 98 | 96.3 | 111
7 | COc1cc2nccc(Oc3ccc(NC(=O)NC4CC4)c(Cl)c3)c2cc1C(N)=O | 116 | 117 | 126 | 118 | 108 | 108 | 88.7 | 79.2 | 69.1 | 56.2 | 51.4 | 93.5 | 117 | 105 | 98.4 | 97.1 | 98.8 | 72.2 | 80.4 | 63.2 | 44.2 | 32.1 | 119 | 110 | 122 | 114 | 104 | 90.8 | 81.4 | 75 | 59.3 | 53.7 | 47.9
8 | COc1ccc(-n2nc(C(N)=O)c3c2C(=O)N(c2ccc(N4CCCCC4=O)cc2)CC3)cc1 | 99.5 | 116 | 132 | 142 | 120 | 137 | 134 | 130 | 133 | 145 | 128 | 120 | 136 | 117 | 124 | 101 | 120 | 136 | 145 | 136 | 154 | 136 |  |  |  |  |  |  |  |  |  |  | 
9 | O=C(c1ccc(Nc2nccc(-c3cc4ccccc4s3)n2)cc1)N1CCC(N2CCCC2)CC1 | 103 | 107 | 108 | 110 | 102 | 104 | 99.3 | 82.4 | 65.2 | 10.8 | 2.34 |  |  |  |  |  |  |  |  |  |  |  | 105 | 120 | 98.2 | 118 | 106 | 114 | 108 | 97.9 | 69.3 | 28.2 | 2.16
